Measurements taken from PubChem BioAssay AID2060621 (Molecular Pharmacology Branch, DTP, NCI, 2025).
Blank lines part the entries; values can stand above or below the compound they belong to.

System: 324938-238-R-J1-PDC complex spheroids viability
Experiment: Anticancer human tumor 324938-238-R-J1-PDC patient-derived bladder carcinoma cell line growth inhibition [CLK]
Conditions: for IC50: curve of first compound; for viability, T/C: stronger effect = lower value
Outline: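 Patient-derived tumor cells grown as complex spheroids with HUVEC endothelial cells and mesenchymal stem cells, treated with drug combinations. Concentrations descend in half-log steps from near clinical Cmax, or from 10 microM if Cmax unknown.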
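Further: viability read after seven days of drug exposure.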
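Wherever viability, T/C is given: 100% = DMSO vehicle control wells.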

- IC50 (second compound 0.0316 µM): 87.6 nM
- IC50 (second compound 0.1 µM): < 3.16 nM
- IC50 (second compound 0.316 µM): < 3.16 nM
- IC50 (second compound 1 µM): < 3.16 nM
- IC50 (second compound 3.16 µM): < 3.16 nM
- IC50 (second compound 10 µM): < 3.16 nM
SMILES: CCN1CCN(Cc2ccc(Nc3ncc(F)c(-c4cc(F)c5nc(C)n(C(C)C)c5c4)n3)nc2)CC1 + CNC(=O)c1ccc(Nc2nc(OC3CCCC3)c3c(-c4ccc5nc(C)oc5c4)c[nH]c3n2)c(OC)c1
- viability, T/C (second compound 0.0316 µM, first compound 0.00316 µM): 75.9%
- viability, T/C (second compound 0.0316 µM, first compound 0.01 µM): 77.3%
- viability, T/C (second compound 0.0316 µM, first compound 0.0316 µM): 57.8%
- viability, T/C (second compound 0.0316 µM, first compound 0.1 µM): 49.9%
- viability, T/C (second compound 0.0316 µM, first compound 0.316 µM): 42.8%
- viability, T/C (second compound 0.0316 µM, first compound 1 µM): 36.6%
- viability, T/C (second compound 0.1 µM, first compound 0.00316 µM): 32.2%
- viability, T/C (second compound 0.1 µM, first compound 0.01 µM): 31.5%
- viability, T/C (second compound 0.1 µM, first compound 0.0316 µM): 29.7%
- viability, T/C (second compound 0.1 µM, first compound 0.1 µM): 30.7%
- viability, T/C (second compound 0.1 µM, first compound 0.316 µM): 33.5%
- viability, T/C (second compound 0.1 µM, first compound 1 µM): 38.7%
- viability, T/C (second compound 0.316 µM, first compound 0.00316 µM): 19.7%
- viability, T/C (second compound 0.316 µM, first compound 0.01 µM): 17%
- viability, T/C (second compound 0.316 µM, first compound 0.0316 µM): 19%
- viability, T/C (second compound 0.316 µM, first compound 0.1 µM): 22.7%
- viability, T/C (second compound 0.316 µM, first compound 0.316 µM): 30.5%
- viability, T/C (second compound 0.316 µM, first compound 1 µM): 33.3%
- viability, T/C (second compound 1 µM, first compound 0.00316 µM): 18.5%
- viability, T/C (second compound 1 µM, first compound 0.01 µM): 17.9%
- viability, T/C (second compound 1 µM, first compound 0.0316 µM): 16.8%
- viability, T/C (second compound 1 µM, first compound 0.1 µM): 21.5%
- viability, T/C (second compound 1 µM, first compound 0.316 µM): 22.6%
- viability, T/C (second compound 1 µM, first compound 1 µM): 31.9%
- viability, T/C (second compound 3.16 µM, first compound 0.00316 µM): 19%
- viability, T/C (second compound 3.16 µM, first compound 0.01 µM): 18%
- viability, T/C (second compound 3.16 µM, first compound 0.0316 µM): 16.1%
- viability, T/C (second compound 3.16 µM, first compound 0.1 µM): 20.6%
- viability, T/C (second compound 3.16 µM, first compound 0.316 µM): 29.9%
- viability, T/C (second compound 3.16 µM, first compound 1 µM): 30.5%
- viability, T/C (second compound 10 µM, first compound 0.00316 µM): 16.4%
- viability, T/C (second compound 10 µM, first compound 0.01 µM): 15.9%
- viability, T/C (second compound 10 µM, first compound 0.0316 µM): 21.2%
- viability, T/C (second compound 10 µM, first compound 0.1 µM): 18.4%
- viability, T/C (second compound 10 µM, first compound 0.316 µM): 23%
- viability, T/C (second compound 10 µM, first compound 1 µM): 32.5%

- IC50 (second compound 0.0316 µM): 39.6 nM
- IC50 (second compound 0.1 µM): < 0.949 nM
- IC50 (second compound 0.316 µM): < 0.949 nM
- IC50 (second compound 1 µM): < 0.949 nM
- IC50 (second compound 3.16 µM): < 0.949 nM
- IC50 (second compound 10 µM): < 0.949 nM
SMILES: C=CC(=O)Nc1cc(Nc2nccc(-c3cn(C)c4ccccc34)n2)c(OC)cc1N(C)CCN(C)C + CNC(=O)c1ccc(Nc2nc(OC3CCCC3)c3c(-c4ccc5nc(C)oc5c4)c[nH]c3n2)c(OC)c1
- viability, T/C (second compound 0.0316 µM, first compound 0.000949 µM): 92.5%
- viability, T/C (second compound 0.0316 µM, first compound 0.003 µM): 87.2%
- viability, T/C (second compound 0.0316 µM, first compound 0.00949 µM): 74.5%
- viability, T/C (second compound 0.0316 µM, first compound 0.03 µM): 52.8%
- viability, T/C (second compound 0.0316 µM, first compound 0.0949 µM): 38.6%
- viability, T/C (second compound 0.0316 µM, first compound 0.3 µM): 27.7%
- viability, T/C (second compound 0.1 µM, first compound 0.000949 µM): 30.5%
- viability, T/C (second compound 0.1 µM, first compound 0.003 µM): 24.8%
- viability, T/C (second compound 0.1 µM, first compound 0.00949 µM): 21.4%
- viability, T/C (second compound 0.1 µM, first compound 0.03 µM): 20.3%
- viability, T/C (second compound 0.1 µM, first compound 0.0949 µM): 15.6%
- viability, T/C (second compound 0.1 µM, first compound 0.3 µM): 14.1%
- viability, T/C (second compound 0.316 µM, first compound 0.000949 µM): 19%
- viability, T/C (second compound 0.316 µM, first compound 0.003 µM): 16.8%
- viability, T/C (second compound 0.316 µM, first compound 0.00949 µM): 19.2%
- viability, T/C (second compound 0.316 µM, first compound 0.03 µM): 16.2%
- viability, T/C (second compound 0.316 µM, first compound 0.0949 µM): 13.4%
- viability, T/C (second compound 0.316 µM, first compound 0.3 µM): 12.9%
- viability, T/C (second compound 1 µM, first compound 0.000949 µM): 16.8%
- viability, T/C (second compound 1 µM, first compound 0.003 µM): 15.5%
- viability, T/C (second compound 1 µM, first compound 0.00949 µM): 16.8%
- viability, T/C (second compound 1 µM, first compound 0.03 µM): 11.8%
- viability, T/C (second compound 1 µM, first compound 0.0949 µM): 11.1%
- viability, T/C (second compound 1 µM, first compound 0.3 µM): 11.5%
- viability, T/C (second compound 3.16 µM, first compound 0.000949 µM): 16.8%
- viability, T/C (second compound 3.16 µM, first compound 0.003 µM): 17.6%
- viability, T/C (second compound 3.16 µM, first compound 0.00949 µM): 13.1%
- viability, T/C (second compound 3.16 µM, first compound 0.03 µM): 14.3%
- viability, T/C (second compound 3.16 µM, first compound 0.0949 µM): 11.9%
- viability, T/C (second compound 3.16 µM, first compound 0.3 µM): 11.8%
- viability, T/C (second compound 10 µM, first compound 0.000949 µM): 18.1%
- viability, T/C (second compound 10 µM, first compound 0.003 µM): 17.9%
- viability, T/C (second compound 10 µM, first compound 0.00949 µM): 14.8%
- viability, T/C (second compound 10 µM, first compound 0.03 µM): 13.2%
- viability, T/C (second compound 10 µM, first compound 0.0949 µM): 12.4%
- viability, T/C (second compound 10 µM, first compound 0.3 µM): 11.5%
